Like-named read-outs stand apart in the source and are kept apart here. Starred links: 1 amine or outer side, 2 acyl side, 3 side chain; linkers in the order of their positions; H or OH if unused. Positions of bridges follow the written chain, without caps; N, C: chain ends. Non-standard residues stand in square brackets, D forms with d. Residues, ends and D or L forms follow the SMILES beside them. ξ: configuration not given here. X5 = CCCOc1ccc(-c2[nH]c3ccccc3c2C[C@H](N[*:1])C(=O)[*:2])cc1; Phe(4-CH2NH2) = NCc1ccc(C[C@H](N)C(=O)O)cc1; Bta = N[C@@H](Cc1csc2ccccc12)C(=O)O; hhPhe = N[C@@H](CCCc1ccccc1)C(=O)O; Hyp = O=C(O)[C@@H]1C[C@@H](O)CN1; NMeF = CN[C@@H](Cc1ccccc1)C(=O)O; NMeNle = CCCC[C@H](NC)C(=O)O; ξR = N=C(N)NCCCC(N)C(=O)O; NMeA = CN[C@@H](C)C(=O)O; Dab = NCC[C@H](N)C(=O)O; Dap = NC[C@H](N)C(=O)O; Sar = CNCC(=O)O
Key:
[1] = biological target: T1, LK35.2-hPD-L1 cells / PE-labeled PD-1-Ig (Homo sapiens, UniProt Q9NZQ7); experiment: LK35.2-hPD-L1 cell binding high-content screening assay; type: cell-based
T1 construct: expressed in transfected cells; host or cells: LK35.2 mouse B cell line
T1 sequence (Q9NZQ7 19-290): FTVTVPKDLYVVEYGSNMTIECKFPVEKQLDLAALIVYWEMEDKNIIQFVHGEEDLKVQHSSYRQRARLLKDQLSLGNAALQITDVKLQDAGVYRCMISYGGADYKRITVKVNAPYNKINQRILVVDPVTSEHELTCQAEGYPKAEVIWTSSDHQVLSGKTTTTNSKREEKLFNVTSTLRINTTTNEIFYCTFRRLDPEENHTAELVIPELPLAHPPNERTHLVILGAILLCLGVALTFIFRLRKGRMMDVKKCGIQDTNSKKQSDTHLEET
Description: LK35.2-hPD-L1 Cell Binding High-Content Screening Assay. Phycoerythrin (PE) was covalently linked to the Ig epitope tag of human PD-1-Ig and fluorescently-labeled PD-1-Ig was used for binding studies with a mouse B cell line (LK35.2) stably over-expressing human PD-L1 (LK35.2-hPD-L1). Briefly, 3×10^3 LK35.2-hPD-L1 cells were seeded into 384 well plates in 20 ul of RPMI supplemented with 10% fetal calf serum and cultured overnight. 125 nl of compound was added to cells, followed by 5 ul of PE-labeled PD-1-Ig (1 nM final), diluted in RPMI supplemented with 10% fetal calf serum, followed by incubation at 37° C. for 1 h. […] Cells were washed 3× in 100 ul of dPBS followed by final addition of 15 ul of dPBS. Data was collected and processed using a Cell Insight NXT High Content Imager and associated software.

Human PD-L1/PD-1 = biological target: T2, Human PD-L1/PD-1 (Homo sapiens, UniProt Q9NZQ7); experiment: HTRF PD-1-Ig/PD-L1-His binding assay (human PD-L1)
T2 construct: made in house; host or cells: HEK293T
T2 sequence (Q9NZQ7 with tags, fused parts or gaps): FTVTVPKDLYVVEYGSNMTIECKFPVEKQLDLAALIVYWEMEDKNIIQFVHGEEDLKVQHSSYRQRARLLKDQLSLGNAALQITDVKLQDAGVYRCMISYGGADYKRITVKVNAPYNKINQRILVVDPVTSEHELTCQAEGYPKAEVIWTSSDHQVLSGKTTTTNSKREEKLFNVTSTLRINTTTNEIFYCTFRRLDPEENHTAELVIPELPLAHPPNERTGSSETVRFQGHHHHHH
Procedure, shortened: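 Ig- and His-fused extracellular PD-1/PD-L1 binding in BSA/Tween-20 dPBS. HTRF with Eu anti-Ig (1 nM final) and APC anti-His (20 nM final).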

[2] = cell binding assay, cell line not given, cluster symbol, read-out: CBA IC50 cluster
[3] = cluster symbol, read-out: HTRF IC50 cluster
[4] = cluster symbol, cell line of CBA not given (LK35.2-hPD-L1 or 293T-hPD-L1), read-out: CBA IC50 cluster

## CCCC[C@H]1C(=O)N(C)CC(=O)N[C@@H](CC(=O)O)C(=O)N[C@@H](C(C)C)C(=O)N[C@@H](Cc2ccc(CN)cc2)C(=O)N[C@@H](Cc2ccc(O)cc2)C(=O)N(C)CC(=O)N[C@@H](Cc2c[nH]c3ccccc23)C(=O)N[C@@H](Cc2ccc(O)cc2)C(=O)N[C@@H](CC(C)C)C(=O)N[C@H](C(=O)NCC(N)=O)CSCC(=O)N[C@@H](Cc2ccccc2)C(=O)N(C)[C@@H](Cc2ccccc2)C(=O)N1C [Example 3523] ({CH2CO}-F[NMeF][NMeNle][Sar]DV[Phe(4-CH2NH2)]Y[Sar]WYLCG-NH2; thioether N-13)
[1]; [2]
  IC50: > 74.3 nM
Human PD-L1/PD-1; [3]
  IC50: > 30.5 nM

## CCCC[C@H]1C(=O)N(C)[C@@H](CCCC)C(=O)N[C@@H](CCC(=O)O)C(=O)N[C@H](C(=O)NCC(N)=O)CSCC(=O)N[C@@H](Cc2ccc(O)cc2)C(=O)N(C)[C@@H](C)C(=O)N[C@@H](CCN)C(=O)N2CCC[C@H]2C(=O)N[C@@H](Cc2c[nH]cn2)C(=O)N[C@@H](CCC(=O)O)C(=O)N2C[C@H](O)C[C@H]2C(=O)N[C@@H](Cc2c[nH]c3ccccc23)C(=O)N[C@@H](CCCCN)C(=O)N[C@@H](Cc2c[nH]c3ccccc23)C(=O)N1C [Example 5112] ({CH2CO}-Y[NMeA][Dab]PHE[Hyp]WKW[NMeNle][NMeNle]ECG-NH2; thioether N-14)
[1]; [2]
  IC50: 0.158 to 4.71 nM
Human PD-L1/PD-1; [3]
  IC50: 0.385 to 6.74 nM

## CCCC[C@H]1C(=O)N(C)[C@@H](CCCC)C(=O)N[C@@H](CN)C(=O)N[C@H](C(=O)NCC(N)=O)CSCC(=O)N[C@@H](Cc2ccc(O)cc2)C(=O)N(C)[C@@H](C)C(=O)N[C@@H](CC(N)=O)C(=O)N2CCC[C@H]2C(=O)N[C@@H](CN)C(=O)N[C@@H](CCC(N)=O)C(=O)N2C[C@H](O)C[C@H]2C(=O)N[C@@H](Cc2c[nH]c3ccccc23)C(=O)N[C@@H](CCN)C(=O)N[C@@H](Cc2csc3ccccc23)C(=O)N1C [Example 1225] ({CH2CO}-Y[NMeA]NP[Dap]Q[Hyp]W[Dab][Bta][NMeNle][NMeNle][Dap]CG-NH2; thioether N-14)
[1]; [4]
  IC50: 0.158 to 4.71 nM
Human PD-L1/PD-1; [3]
  IC50: 0.385 to 6.74 nM

## CCCC[C@H]1C(=O)N(C)[C@@H](CCCC)C(=O)N[C@@H](C)C(=O)N[C@H](C(=O)NCC(N)=O)CSCC(=O)N[C@@H](Cc2ccc(O)cc2)C(=O)N(C)[C@@H](C)C(=O)N[C@@H](CC(N)=O)C(=O)N2CCC[C@H]2C(=O)N[C@@H](Cc2cnc[nH]2)C(=O)N[C@@H](CCC(=O)O)C(=O)N2C[C@H](O)C[C@H]2C(=O)N[C@@H](Cc2c[nH]c3ccccc23)C(=O)N[C@@H](CCN)C(=O)N[C@@H](Cc2c[nH]c3ccccc23)C(=O)N1C [Example 5036] ({CH2CO}-Y[NMeA]NPHE[Hyp]W[Dab]W[NMeNle][NMeNle]ACG-NH2; thioether N-14)
[1]; [2]
  IC50: 0.158 to 4.71 nM
Human PD-L1/PD-1; [3]
  IC50: 0.385 to 6.74 nM

## CCCC[C@H]1C(=O)N(C)[C@@H](CCCC)C(=O)NC(CCCNC(=N)N)C(=O)N[C@H](C(=O)NCC(N)=O)CSCC(=O)N[C@@H](Cc2ccc(O)cc2)C(=O)N(C)[C@@H](C)C(=O)N[C@@H](CC(N)=O)C(=O)N2CCC[C@H]2C(=O)N[C@@H](CN)C(=O)N[C@@H](CC(C)C)C(=O)N2C[C@H](O)C[C@H]2C(=O)N[C@@H](Cc2c[nH]c3ccccc23)C(=O)N[C@@H](CO)C(=O)N[C@@H](Cc2c(-c3ccc(OCCC)cc3)[nH]c3ccccc23)C(=O)N1C (some centres unmarked) [Example 7005] ({CH2CO}-Y[NMeA]NP[Dap]L[Hyp]WS[X5][NMeNle][NMeNle][ξR]CG-NH2; thioether N-14)
[1]; [2]
  IC50: 4.78 to 72.9 nM
Human PD-L1/PD-1; [3]
  IC50: 0.385 to 6.74 nM

## CCCC[C@H]1C(=O)N(C)[C@@H](CCCC)C(=O)N[C@@H](CCCNC(=N)N)C(=O)N[C@H](C(=O)NCC(N)=O)CSCC(=O)N[C@@H](CCCc2ccccc2)C(=O)N(C)[C@@H](C)C(=O)N[C@@H](CC(N)=O)C(=O)N2CCC[C@H]2C(=O)N[C@@H](Cc2cnc[nH]2)C(=O)N[C@@H](CC(C)C)C(=O)N2CCC[C@H]2C(=O)N[C@@H](Cc2c[nH]c3ccccc23)C(=O)N[C@@H](CO)C(=O)N[C@@H](Cc2c[nH]c3ccccc23)C(=O)N1C [Example 7018] ({CH2CO}-[hhPhe][NMeA]NPHLPWSW[NMeNle][NMeNle]RCG-NH2; thioether N-14)
[1]; cell binding assay, cell line not given, value given instead of cluster, read-out: CBA IC50 value
  IC50: 228 nM
Human PD-L1/PD-1; value given instead of cluster, read-out: HTRF IC50 value
  IC50: 13.6 nM

## CCCC[C@@H]1NC(=O)[C@H](Cc2ccc(O)cc2)NC(=O)[C@H](Cc2c[nH]c3ccccc23)NC(=O)CN(C)C(=O)[C@H](Cc2ccc(O)cc2)NC(=O)[C@H](Cc2ccccc2)N(C)C(=O)[C@H](C(C)C)NC(=O)[C@H](CC(=O)O)NC(=O)CN(C)C(=O)[C@H](CCCC)N(C)C(=O)[C@H](Cc2ccccc2)N(C)C(=O)[C@H](Cc2ccccc2)NC(=O)CSC[C@@H](C(=O)NCC(N)=O)NC1=O [Example 3097] (HELM PEPTIDE1{[O=C(C[*:3])[*:2]].F.[meF].[CCCC[C@@H](C(=O)[*:2])N(C)[*:1]].[Sar].D.V.[meF].Y.[Sar].W.Y.[Nle].C.G.[am]}$PEPTIDE1,PEPTIDE1,1:R3-14:R3$$$V2.0)
[1]; [4]
  IC50: 4.78 to 72.9 nM
Human PD-L1/PD-1; [3]
  IC50: 6.76 to 30.3 nM
